The values below come from PMC7944402, “Resin-acid derivatives bind to multiple sites on the voltage-sensor domain of the Shaker potassium channel” (The Journal of General Physiology, 2021).

Values joined by “and” are separate entries in the source; they are usually repeats but may differ in a detail not shown here. Equal values may be shown once.

Holding throughout (format): cell-based
The target of assay [1] is T1, Shaker KV channel with the 2R motif (M356R/A359R) (Drosophila melanogaster, UniProt P08510, A359R/DEL6-46/M356R).
T1 construct: expressed in transfected cells; host or cells: Xenopus laevis oocytes (RNA injection)
T1 sequence (P08510 other isoform, or with tags, fused parts or gaps DEL6-46/M356R/A359R): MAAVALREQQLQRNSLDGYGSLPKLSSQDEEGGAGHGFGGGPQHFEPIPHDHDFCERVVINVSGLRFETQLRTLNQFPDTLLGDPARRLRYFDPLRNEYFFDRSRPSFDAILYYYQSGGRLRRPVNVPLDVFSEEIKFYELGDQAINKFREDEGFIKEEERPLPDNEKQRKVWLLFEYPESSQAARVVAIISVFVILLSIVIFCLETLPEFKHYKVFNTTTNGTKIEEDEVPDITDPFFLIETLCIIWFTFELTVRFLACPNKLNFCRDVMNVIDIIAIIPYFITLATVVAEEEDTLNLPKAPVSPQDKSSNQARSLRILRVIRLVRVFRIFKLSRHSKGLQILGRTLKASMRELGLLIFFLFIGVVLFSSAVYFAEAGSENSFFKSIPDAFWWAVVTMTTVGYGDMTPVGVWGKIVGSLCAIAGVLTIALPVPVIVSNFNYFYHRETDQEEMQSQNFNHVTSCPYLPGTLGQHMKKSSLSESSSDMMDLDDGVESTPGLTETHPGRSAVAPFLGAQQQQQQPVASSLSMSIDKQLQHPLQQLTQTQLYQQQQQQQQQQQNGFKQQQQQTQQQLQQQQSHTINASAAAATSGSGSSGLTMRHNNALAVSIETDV
As to the kind of experiment: Two-electrode voltage clamp in Xenopus oocytes: 2R motif channel. The source says:
The Shaker H4 channel (GenBank accession no. NM_167595.3; [Kamb et al., 1987]), with removed N-type inactivation due to a Δ6-46 deletion (ShH4IR, in Bluescript II KS(+) plasmid; [Hoshi et al., 1990]), is referred to as the WT Shaker KV channel. […] Therefore, we specifically refer to the two added arginines just outside S4 (M356R/A359R) as the 2R motif. Mutations were introduced with site-directed mutagenesis and verified with sequencing as described previously ([Börjesson et al., 2010]). RNA injection and oocyte handling were performed as before ([Börjesson et al., 2010]; [Ottosson et al., 2015]). All animal experiments were approved by the Linköping’s local Animal Care and Use Committee.
(§1) Electrophysiological experiments were made 1–6 d after RNA injection. K^+ currents were measured with the two-electrode voltage-clamp technique (GeneClamp 500B amplifier; Axon Instruments) as described previously ([Ottosson et al., 2015]; [Silverå Ejneby et al., 2018]). The amplifier’s leak compensation was used, and the currents were low-pass filtered at 5 kHz. The control solution contained (in mM) 88 NaCl, 1 KCl, 15 HEPES, 0.4 CaCl2, and 0.8 MgCl2, and pH was set with NaOH. All experiments were made at room temperature (20°C–23°C). The holding potential was set to −80 mV (or −100 mV if the mutant was not fully closed at −80 mV).
Stock solutions were stored at −20°C and diluted in control solution just before experiments. The test solution was added to the oocyte bath manually with a syringe. […] To make sure all Wu50 molecules were negatively charged, the pH of the control solution was set to 9.0 before the experiments.
(§2) The conductance, G(V), was calculated as G(V)=I/(V−VK), (1) where I is the steady-state current measured at the end of each test-voltage sweep (100 ms after onset; Clampfit 10.5; Molecular Devices), V is the absolute membrane voltage, and VK is the reversal potential for K^+ ions (set to −80 mV). The conductance was fitted with a Boltzmann equation (GraphPad Prism 5; GraphPad Software, Inc.) GK(V)=GMAX/{1+exp[(V½−V)/s]}, (2) where GMAX is the amplitude (maximal conductance) of the curve, V is the absolute membrane voltage, V1/2 is the midpoint, and s is the slope. The resin-acid–induced G(V) shift was calculated as V1/2 (compound) − V1/2 (control). The relative change in GMAX was calculated as GMAX (compound) / GMAX (control). The concentration dependence for the G(V) shifts was calculated as ΔV= ΔVMAX/(1 +EC50/c), (3) where ΔV is the voltage shift, ΔVMAX is the voltage shift at saturating concentration, c is the concentration of the tested compound, and EC50 is the concentration at which half-maximum response occurs.

For assay [2], the target named is T2, Shaker KV channel R362Q/R365Q/W454A (Drosophila melanogaster, UniProt P08510, DEL6-46/R362Q/R365Q/W454A).
T2 construct: expressed in transfected cells; host or cells: Xenopus laevis oocytes (RNA injection)
T2 sequence (P08510 with tags, fused parts or gaps DEL6-46/R362Q/R365Q/W454A): as the sequence (P08510 other isoform, or with tags, fused parts or gaps DEL6-46/M356R/A359R) above, with R315M, R318A, R321Q, R324Q, W413A counted along it
As to the kind of experiment: Two-electrode voltage clamp in Xenopus oocytes: R362Q/R365Q/W454A. To be noted: 100 μM, pH 9.0, R362Q/R365Q/W454A. An excerpt:
(§3) The Shaker H4 channel (GenBank accession no. NM_167595.3; [Kamb et al., 1987]), with removed N-type inactivation due to a Δ6-46 deletion (ShH4IR, in Bluescript II KS(+) plasmid; [Hoshi et al., 1990]), is referred to as the WT Shaker KV channel. Addition of two positively charged arginines (M356R/A359R) at the extracellular top of the voltage sensor increases the effect of charged lipophilic compounds ([Ottosson et al., 2014], [2015], [2017]). […] However, for the resin-acid derivatives studied in the present investigation, R362 reduced the effect. Therefore, we specifically refer to the two added arginines just outside S4 (M356R/A359R) as the 2R motif. […]
(§4) Electrophysiological experiments were made 1–6 d after RNA injection. K^+ currents were measured with the two-electrode voltage-clamp technique (GeneClamp 500B amplifier; Axon Instruments) as described previously ([Ottosson et al., 2015]; [Silverå Ejneby et al., 2018]). […]
(§5) The conductance, G(V), was calculated as G(V)=I/(V−VK), (1) where I is the steady-state current measured at the end of each test-voltage sweep (100 ms after onset; Clampfit 10.5; Molecular Devices), V is the absolute membrane voltage, and VK is the reversal potential for K^+ ions (set to −80 mV). […] The resin-acid–induced G(V) shift was calculated as V1/2 (compound) − V1/2 (control). The relative change in GMAX was calculated as GMAX (compound) / GMAX (control). […]
(In general: In two-electrode clamp one electrode senses voltage and the other passes current.)

In assay [3] the target is T3, Shaker KV channel R362Q/W454A/F416A (Drosophila melanogaster, UniProt P08510, DEL6-46/F416A/R362Q/W454A).
T3 construct: expressed in transfected cells; host or cells: Xenopus laevis oocytes (RNA injection)
T3 sequence (P08510 other isoform, or with tags, fused parts or gaps DEL6-46/R362Q/F416A/W454A): as the sequence (P08510 other isoform, or with tags, fused parts or gaps DEL6-46/M356R/A359R) above, with R315M, R318A, R321Q, F375A, W413A counted along it
As to the kind of experiment: Two-electrode voltage clamp in Xenopus oocytes: R362Q/W454A/F416A. The note with it: 100 μM.
Text: (§6) The Shaker H4 channel (GenBank accession no. NM_167595.3; [Kamb et al., 1987]), with removed N-type inactivation due to a Δ6-46 deletion (ShH4IR, in Bluescript II KS(+) plasmid; [Hoshi et al., 1990]), is referred to as the WT Shaker KV channel. Addition of two positively charged arginines (M356R/A359R) at the extracellular top of the voltage sensor increases the effect of charged lipophilic compounds ([Ottosson et al., 2014], [2015], [2017]). […] However, for the resin-acid derivatives studied in the present investigation, R362 reduced the effect. Therefore, we specifically refer to the two added arginines just outside S4 (M356R/A359R) as the 2R motif. Mutations were introduced with site-directed mutagenesis and verified with sequencing as described previously ([Börjesson et al., 2010]). RNA injection and oocyte handling were performed as before ([Börjesson et al., 2010]; [Ottosson et al., 2015]). All animal experiments were approved by the Linköping’s local Animal Care and Use Committee.
as §4
as §2, with “The conductance was fitted with a Boltzmann equation (GraphPad Prism 5; GraphPad Software, Inc.) GK(V)=GMAX/{1+exp[(V½−V)/s]}, (2) where GMAX is the amplitude (maximal conductance) of the curve, V is the absolute membrane voltage, V1/2 is the midpoint, and s is the slope.” left out

The target of assay [4] is T4, Shaker KV channel W454A (Drosophila melanogaster, UniProt P08510, DEL6-46/W454A).
T4 construct: expressed in transfected cells; host or cells: Xenopus laevis oocytes (RNA injection)
T4 sequence (P08510 other isoform, or with tags, fused parts or gaps DEL6-46/W454A): as the sequence (P08510 other isoform, or with tags, fused parts or gaps DEL6-46/M356R/A359R) above, with R315M, R318A, W413A counted along it
The assay can be described thus: Two-electrode voltage clamp in Xenopus oocytes: W454A. The note with it: 100 μM, pH 9.0, W454A.
Text: as §6, §4
as §2, with “The conductance was fitted with a Boltzmann equation (GraphPad Prism 5; GraphPad Software, Inc.) GK(V)=GMAX/{1+exp[(V½−V)/s]}, (2) where GMAX is the amplitude (maximal conductance) of the curve, V is the absolute membrane voltage, V1/2 is the midpoint, and s is the slope.” left out

Assay [5] deals with T5, Shaker KV channel R362Q (Drosophila melanogaster, UniProt P08510, DEL6-46/R362Q).
T5 construct: expressed in transfected cells; host or cells: Xenopus laevis oocytes (RNA injection)
T5 sequence (P08510 other isoform, or with tags, fused parts or gaps DEL6-46/R362Q): as the sequence (P08510 other isoform, or with tags, fused parts or gaps DEL6-46/M356R/A359R) above, with R315M, R318A, R321Q counted along it
The assay can be described thus: Two-electrode voltage clamp in Xenopus oocytes: R362Q. The note with it: 100 μM, pH 9.0, R362Q.
Text: as §6, §4
as §2, with “The conductance was fitted with a Boltzmann equation (GraphPad Prism 5; GraphPad Software, Inc.) GK(V)=GMAX/{1+exp[(V½−V)/s]}, (2) where GMAX is the amplitude (maximal conductance) of the curve, V is the absolute membrane voltage, V1/2 is the midpoint, and s is the slope.” left out

In assay [6] the target is T6, Shaker KV channel M356R/A359R/R362Q (Drosophila melanogaster, UniProt P08510, A359R/DEL6-46/M356R/R362Q).
T6 construct: expressed in transfected cells; host or cells: Xenopus laevis oocytes (RNA injection)
T6 sequence (P08510 other isoform, or with tags, fused parts or gaps DEL6-46/M356R/A359R/R362Q): as the sequence (P08510 other isoform, or with tags, fused parts or gaps DEL6-46/M356R/A359R) above, with R321Q counted along it
As to the kind of experiment: Two-electrode voltage clamp in Xenopus oocytes: 2R motif/R362Q.
Text: as §6, §1
(§7) Stock solutions were stored at −20°C and diluted in control solution just before experiments. The test solution was added to the oocyte bath manually with a syringe. […] To make sure all Wu50 molecules were negatively charged, the pH of the control solution was set to 9.0 before the experiments. This pH change had only small effects on channel kinetics and the G(V) relation.
as §2, with “The conductance was fitted with a Boltzmann equation (GraphPad Prism 5; GraphPad Software, Inc.) GK(V)=GMAX/{1+exp[(V½−V)/s]}, (2) where GMAX is the amplitude (maximal conductance) of the curve, V is the absolute membrane voltage, V1/2 is the midpoint, and s is the slope.” left out

Assay [7] has as its target T7, Shaker KV channel R362Q/R365Q/W454A/F280I (Drosophila melanogaster, UniProt P08510, DEL6-46/F280I/R362Q/R365Q/W454A).
T7 construct: expressed in transfected cells; host or cells: Xenopus laevis oocytes (RNA injection)
The assay can be described thus: Two-electrode voltage clamp in Xenopus oocytes: R362Q/R365Q/W454A/F280I. The note with it: 100 μM, pH 9.0, R362Q/R365Q/W454A/F280I.
Text: as §3, §4, §5

Assay [8] concerns the target T8, Shaker KV channel M356R/A359R/W454A (Drosophila melanogaster, UniProt P08510, A359R/DEL6-46/M356R/W454A).
T8 construct: expressed in transfected cells; host or cells: Xenopus laevis oocytes (RNA injection)
As to the kind of experiment: Two-electrode voltage clamp in Xenopus oocytes: 2R motif/W454A.
Text: as §6, §1, §7
as §2, with “The conductance was fitted with a Boltzmann equation (GraphPad Prism 5; GraphPad Software, Inc.) GK(V)=GMAX/{1+exp[(V½−V)/s]}, (2) where GMAX is the amplitude (maximal conductance) of the curve, V is the absolute membrane voltage, V1/2 is the midpoint, and s is the slope.” left out

Where [9] appears, read: 100 μM, pH 9.0, M356R/A359R (=2R).
Setting [10] is: 100 μM, pH 9.0, M356R/A359R/R362Q.
[11] abbreviates: 100 μM, pH 9.0, M356R/A359R/W454A.

T8 sequence (P08510 with tags, fused parts or gaps DEL6-46/M356R/A359R/W454A): as the sequence (P08510 other isoform, or with tags, fused parts or gaps DEL6-46/M356R/A359R) above, with W413A counted along it
T7 sequence (P08510 other isoform, or with tags, fused parts or gaps DEL6-46/F280I/R362Q/R365Q/W454A): as the sequence (P08510 other isoform, or with tags, fused parts or gaps DEL6-46/M356R/A359R) above, with F239I, R315M, R318A, R321Q, R324Q, W413A counted along it

Turning to `C[C@@]1(C(=O)O)CCC[C@]2(C)c3cc(Cl)c(Cl)c(Cl)c3CC[C@@H]12` [Wu50], the “G(V) shift, representative recording (Fig. 1 D)” value in assay [1] (100 µM, pH 9.0, 2R motif) is listed as −40.7 mV. Besides, the “GMAX (rel.)” value in assay [1] (setting [9]) was determined as 1.58 rel; in assay [2] it was 0.57 rel; in assay [3] (pH 9.0, R362Q/W454A/F416A) it was 0.17 rel; in assay [4], 0.56 rel; in assay [5] it was 1.25 rel; in assay [6] (setting [10]) it was 1.93 rel. In addition, the “GMAX (rel.)” value is listed as 0.05 rel in assay [7] and 1.28 rel in assay [8] (setting [11]). In addition, the “ΔVG(V) (G(V) shift)” value in assay [1] (setting [9]) is −40.0 ± 2.7 mV and -40.0 mV; in assay [2], −24.7 ± 3.0 mV and -24.7 mV; in assay [4], −8.1 ± 0.4 mV and -8.1 mV; in assay [5], −49.6 ± 1.2 mV and -49.6 mV; in assay [6] (setting [10]), −54.0 ± 2.3 mV and -54.0 mV; in assay [8] (setting [11]) it was -39.6 mV. In assay [1] (2R motif versus WT, Wu50 pH 9.0, Wu161 and Wu181 pH 7.4), the “Increase of the maximum G(V) shift by the 2R motif” value stood at 57%. For the same compound, the “ΔVMAX (maximum G(V) shift)” value in assay [1] (2R motif, pH 9.0, concentration-response (Eq. 3)) is −56.5 ± 2.6 mV; in assay [8] (2R motif/W454A, pH 9.0, concentration-response), −62.3 ± 6.5 mV. Further, the EC50 was 30 ± 5 µM in assay [1] (2R motif, pH 9.0, concentration-response (Eq. 3), read-out: EC50 of the G(V) shift (apparent affinity)) and 27.9 ± 9.2 µM in assay [8]. The “Increase of the G(V) shift by the 2R motif, in the negative direction” value in assay [1] (magnitude depending on the background mutations, 100 μM, pH 9.0) is given as 4–32 mV. In addition, the “Reduction of GMAX” value in assay [3] (R362Q/W454A/F416A, pH 9.0) is 83%. In assay [6] (100 µM, pH 9.0, 2R motif/R362Q), the “G(V) shift, representative recording (Fig. 4 B)” value is −59.0 mV.
